In US6869973B2, “Nitrosated and nitrosylated taxanes, compositions and methods of use” (NitroMed, Inc., priority 2000, dated 2005):
Like-named read-outs stand apart in the source and are kept apart here.

Experiments:
[1] = system: human coronary artery smooth muscle cells (CASMC); assay: Vascular smooth muscle cell (SMC) antiproliferation assay; assay type: cell-based
Method: The cells used in this assay were human coronary artery smooth muscle cells (CASMC) supplied by Clonetics Corp. (San Diego, Calif.). They were maintained in SmGM-2 growth medium (Clonetics Corp.), which consisted of modified MCDB 131 medium supplemented with 5% (v/v) fetal bovine serum (FBS), 0.5 ng/mL human recombinant epidermal growth factor (EGF), 2 ng/mL human recombinant fibroblast growth factor (FGF), 5 μg/mL bovine insulin, 50 μg/mL gentamicin sulfate, and 50 ng/mL amphotericin B under humidified 95% air-5% CO2 at 37° C.
For the SMC antiproliferation assay, the cells were seeded at 3×10^4 viable cells in 2 mL of SmGM-2 medium per well of a Corning 24 well plate (Corning, N.Y.). Stock solutions of the test compounds were prepared just prior to addition to the cells by dissolving in ethanol at a concentration of 40 mM. This stock solution was diluted, as required, with ethanol to lower concentrations. […] Control cultures received 2 μL of ethanol per well (n=4). On the following morning, the cultures were examined microscopically and their condition recorded. On the third day after test compound addition (˜68 hr), the cultures were examined microscopically again and the viable cells counted with an hemacytometer following trypsinization with 0.25% trypsin-1 mM EDTA. Trypan Blue dye exclusion was used to discriminate between viable and dead cells.
(§1) The SMC antiproliferation assay was performed as described in Example 5.
as §1

rabbit platelets = assay: Rabbit platelet aggregation assay (ADP-induced, platelet-rich plasma); assay type: cell-based, New Zealand White rabbits; settings: rabbit PRP, 2 min pre-incubation, FIG. 2; for effect on platelet aggregation (qualitative): concentrations higher than 1 μM
Method: Blood was collected from New Zealand White rabbits into a sodium citrate solution. Platelet-rich plasma (PRP) and platelet-poor plasma (PPP) were obtained by centrifugation of the citrated blood. Aggregation of the platelets, which was induced by addition of adenosine diphosphate (ADP), was measured in a Chrono-Log Aggregometer (Havertown, Pa.). Stock solutions of the test compounds were prepared in ethanol at concentrations 1000-fold higher than the final concentrations. The test compounds at these different concentrations were pre-incubated with the PRP for 2 min with stirring prior to the addition of ADP. Inhibition of aggregation was quantified as follows: % Inhibition=100% (1−(Max. Ampl. Agg. in Test Compound/Max. Ampl. Agg. Control)) • “Max. Ampl. Agg. In Test Compound” was the measured maximum amplitude of the platelets in the PRP in the presence of and after pre-incubation with the test compound. • “Max. Ampl. Agg. Control” was the measured maximum amplitude of the platelets in the PRP without test compound addition.
Nitric oxide inhibits the aggregation of platelets whether added as the gas or in the form of a NO donor.

[2] = CASMC, viable cell count ~68 hr after compound addition, FIG. 1 / FIG. 3
[3] = CASMC, qualitative ranking against comparator named in the sentence

Row | Compound | effect on platelet aggregation (qualitative) (rabbit platelets) | concentration that totally suppressed cell proliferation of the seeded cells [1, 2] [µM] | comparison of inhibition of proliferation of vascular smooth muscle cells [1, 3] | also measured
1 | 9-(2-({((2R)-2,3-bis(nitrooxy)propyl)oxycarbonyl}methoxy)acetyloxy)(1S,2S,4S,9S,10S,15S,7R,12R)-4,12-diacetyloxy-1-hydroxy-10,14,17,17-tetramethyl-6-oxa-11-oxo-2 phenylcarbonyloxytetracyclo (11.3.1.0<3,10>0.0<4,7>)heptadec-13-en-15-yl 2-(2-({((2R)-2,3-bis(nitrooxy)propyl)oxycarbonyl}methoxy)acetyloxy)(3S,2R)-3-phenyl-3-(phenylcarbonylamino)propanoate [Example 3] | – | – | – | comparison of inhibition of proliferation of vascular smooth muscle cells [1]: superior to paclitaxel; concentration that totally suppressed cell proliferation of the seeded cells [1]: 1 µM
2 | CC(=O)O[C@H]1C(=O)[C@@]2(C)C([C@H](OC(=O)c3ccccc3)C3(O)C[C@H](OC(=O)[C@H](O)[C@@H](NC(=O)c4ccccc4)c4ccccc4)C(C)=C1C3(C)C)[C@]1(OC(C)=O)CO[C@@H]1C[C@@H]2OC(=O)CC(C)(C)SN=O (stereo partly drawn) [Example 1, 15-((3S,2R)-2-hydroxy-3-phenyl-3-(phenylcarbonylamino)propanoyloxy) (2S,4S,9S,10S,15S,7R,12R)-4,12-diacetyloxy-1-hydroxy-10,14,17,17-tetramethyl-6-oxa-11-oxo-2-phenylcarbonyloxytetracyclo (11.3.1.0<3,10>0.0<4,7>)heptadec-13-en-9-yl 3-methyl-3-(nitrosothio) butanoate] | inhibited platelet aggregation, but required higher concentrations than SNO-Glu | 0.1 | superior to its non-nitrosylated derivative (Example 1d) | –
3 | CC(=O)O[C@H]1C(=O)[C@@]2(C)C([C@H](OC(=O)c3ccccc3)[C@]3(O)C[C@H](OC(=O)[C@H](O)[C@@H](NC(=O)c4ccccc4)c4ccccc4)C(C)=C1C3(C)C)[C@]1(OC(C)=O)CO[C@@H]1C[C@@H]2OC(=O)CC(C)(C)S (stereo partly drawn) [Example 1d, 15-((3S,2R)-2-hydroxy-3-phenyl-3-(phenylcarbonylamino)propanoyloxy) (2S,4S,9S,10S,15S,7R,12R)-4,12-diacetyloxy-1-hydroxy-10,14,17,17-tetramethyl-6-oxa-11-oxo-2-phenylcarbonyloxytetracyclo(11.3.1.0<3,10>0.0<4,7>)heptadec-13-en-9-yl 3-methyl-3-sulfanylbutanoate] | did not prevent platelet aggregation | 0.1 | – | –
4 | CC(=O)OC1C(=O)C2(C)C(OC(=O)COCC(=O)OCC(CO[N+](=O)[O-])(CO[N+](=O)[O-])CO[N+](=O)[O-])CC3OCC3(OC(C)=O)C2C(OC(=O)c2ccccc2)C2(O)CC(OC(=O)C(OC(=O)COCC(=O)OCC(CO[N+](=O)[O-])(CO[N+](=O)[O-])CO[N+](=O)[O-])C(NC(=O)c3ccccc3)c3ccccc3)C(C)=C1C2(C)C [Example 4, (1S,2S,4S,9S,10S,15S,7R,12R)-4,12-diacetyloxy-9-{2-(({2,2-bis((nitrooxy)methyl)-3-(nitrooxy)propyl}oxycarbonyl)methoxy)acetyloxy}-1-hydroxy-10,14,17,17-tetramethyl-6-oxa-11-oxo-2-phenylcarbonyloxytetracyclo (11.3.1.0<3,10>0.0<4,7>)heptadec-13-en-15-yl(3S,2R)-2-{2-(({2,2-bis ((nitrooxy)methyl)-3-(nitrooxy)propyl}oxycarbonyl)methoxy)acetyloxy}-3-phenyl-3-(phenylcarbonylamino)propanoate] | – | 1 | superior to paclitaxel | –
5 | CC(=O)O[C@H]1C(=O)[C@@]2(C)[C@H]([C@H](OC(=O)c3ccccc3)[C@]3(O)C[C@H](OC(=O)[C@H](O)[C@@H](NC(=O)c4ccccc4)c4ccccc4)C(C)=C1C3(C)C)[C@]1(OC(C)=O)CO[C@@H]1C[C@@H]2O [Paclitaxel, reference compound] | did not prevent platelet aggregation | 0.01 | – | –
6 | N[C@@H](CCC(=O)N[C@@H](CSN=O)C(=O)NCC(=O)O)C(=O)O [S-Nitrosoglutathione, reference compound] | – | – | – | final concentration that totally inhibited platelet aggregation (rabbit platelets): 1 µM
